≈ marks a conversion by molar mass, not a printed value. Non-standard residues stand in square brackets, D forms with d. Residues, ends and D or L forms follow the SMILES beside them. N(1-naphthylmethyl)Gly = O=C(O)CNCc1cccc2ccccc12; d1Nal = N[C@H](Cc1cccc2ccccc12)C(=O)O; N(4-MeBn)Gly = Cc1ccc(CNCC(=O)O)cc1; dNle = CCCC[C@@H](N)C(=O)O; NBuGly = CCCCNCC(=O)O; Nlys = NCCCCNCC(=O)O
What was measured:
E. coli, 30235 = format: cell-based, Escherichia coli; settings: 30235, 18 h
Experimental: (§1) To explore the antimicrobial activity of the library of peptides and peptidomimetics, they were tested against Acinetobacter baumannii, Corynebacterium auriscanis, Escherichia coli, Enterococcus faecalis, Enterococcus faecium, Klebsiella pneumonia, Proteus mirabilis, and Pseudomonas aeruginosa. Bacteria grown on agar plates for 18 h at 37 °C were diluted to ~1 × 10^8 CFU/mL in Mueller–Hinton broth (MHB). Two-fold serial dilutions of peptides and peptidomimetics in MHB II were inoculated with bacteria to achieve a final concentration of 5 × 10^5 CFU/mL in polypropylene 96 U-well microtiter plates (Almeco, Esbjerg, Denmark), followed by incubation at 37 °C in ambient air for 18 h. The MIC values were determined as the lowest concentration showing no visible bacterial growth. Experiments were performed twice (in technical triplicates) on two different days.

[1] = tested on: Staphylococcus aureus (ATCC 29213); format: cell-based; settings: ATCC 29213, 18 h
S. pseudintermedius = experiment: MIC against canine clinical S. pseudintermedius strains (Table S2); format: cell-based, Staphylococcus pseudintermedius; settings: for MIC S. pseudintermedius 22963: 22963, 3 B9, dog, 2007; for MIC S. pseudintermedius 26071: 26071, 11 E5, dog; for MIC S. pseudintermedius 26071 / MIC S. pseudintermedius 26092-2 / MIC S. pseudintermedius 33228 / MIC S. pseudintermedius 37526-1 / MIC S. pseudintermedius 37535-1: skin; for MIC S. pseudintermedius 26071 / MIC S. pseudintermedius 26092-2: 2009; for MIC S. pseudintermedius 26092-2: 26092-2, 11 E4, dog; for MIC S. pseudintermedius 26959: 26959, 15 F8, dog, 2010; for MIC S. pseudintermedius 26959 / MIC S. pseudintermedius 27364: wound; for MIC S. pseudintermedius 27364: 27364, 17 A7, dog; for MIC S. pseudintermedius 27364 / MIC S. pseudintermedius 27382: 2011; for MIC S. pseudintermedius 27382: 27382, 17 B8, dog; for MIC S. pseudintermedius 27382 / MIC S. pseudintermedius 31524 / MIC S. pseudintermedius 35890: ear; for MIC S. pseudintermedius 31524: 31524, 54 C3, dog, 2013; for MIC S. pseudintermedius 33228: 33228, 55 E2, dog, 2014; for MIC S. pseudintermedius 35890: 35890, 59 B8, dog, 2015; for MIC S. pseudintermedius 37526-1: 37526-1, 65 B4, dog; for MIC S. pseudintermedius 37526-1 / MIC S. pseudintermedius 37535-1: 2016; for MIC S. pseudintermedius 37535-1: 37535-1, 65 B6, dog; for MIC S. pseudintermedius 38637: 38637, 70 C3, dog, wound 2017; for MIC S. pseudintermedius 38820: 38820, 70 F9, dog, urine 2017
Experimental: (§2) Similarly, in this study, to assess the degree of selectivity for S. pseudintermedius, D2 and D2D were tested against a collection of S. aureus and MSSP strains (Table S2).
as §1

[2] = tested on: Corynebacterium auriscanis, 31551; format: cell-based; settings: 18 h
Experimental: as §1

[3] = tested on: Enterococcus faecalis, 27404; format: cell-based; settings: 27404, 18 h
Experimental: as §1

[4] = tested on: Klebsiella pneumoniae, 26233; format: cell-based; settings: 26233, 18 h
Experimental: as §1

[5] = tested on: Acinetobacter baumannii, 27065; format: cell-based; settings: 27065, 18 h
Experimental: as §1

[6] = tested on: Enterococcus faecium, 30951; format: cell-based; settings: 30951, 18 h
Experimental: as §1

[7] = tested on: Pseudomonas aeruginosa (ATCC 27853); format: cell-based; settings: ATCC 27853, 18 h
Experimental: as §1

Proteus mirabilis, 25178 = format: cell-based; settings: 25178, 18 h
Experimental: as §1

S. aureus = experiment: MIC against canine clinical S. aureus strains (Table S2); format: cell-based, Staphylococcus aureus; settings: for MIC S. aureus 25054: 25054, 8 G6, dog, 2009; for MIC S. aureus 25054 / MIC S. aureus 28264 / MIC S. aureus 36968: wound; for MIC S. aureus 27266: 27266, 16 G9, dog, 2010; for MIC S. aureus 27266 / MIC S. aureus 37708-2 / MIC S. aureus 38200 / MIC S. aureus 38565-1: skin; for MIC S. aureus 28264: 28264, 20 B1, dog, 2011; for MIC S. aureus 30935: 30935, 24 B9, dog, 2013; for MIC S. aureus 30935 / MIC S. aureus 37595: joint; for MIC S. aureus 36968: 36968, 61 A9, dog; for MIC S. aureus 36968 / MIC S. aureus 37595 / MIC S. aureus 37708-2 / MIC S. aureus 38200: 2016; for MIC S. aureus 37595: 37595, 65 D2, dog; for MIC S. aureus 37708-2: 37708-2, 66 C6, dog; for MIC S. aureus 38200: 38200, 68 E9, dog; for MIC S. aureus 38565-1: 38565-1, 70 A5, dog; for MIC S. aureus 38565-1 / MIC S. aureus 38841: 2017; for MIC S. aureus 38841: 38841, 70 G5, dog, urine
Experimental: as §2, §1

[8] = tested on: clinical MRSP strain C22963; experiment: Time–kill kinetics; format: cell-based, Staphylococcus pseudintermedius; settings: for log reduction in time–kill: after 6 h, MRSP C22963, 10^5 CFU/mL in MHB
Experimental: The time–kill experiments of D2 against the methicillin-resistant S. pseudintermedius strain C22963 were performed using an in-house protocol adopted and modified from Blondeau et al.: the bacterium was grown overnight on a blood agar plate. The next day, an inoculum was transferred to MHB and incubated for 2 h at 37 °C to reach exponential growth phase. […] Aliquots were removed at 1 h intervals up to 6h and spotted in triplicate on blood agar plates, and incubated overnight at 37 °C. Colonies were counted and CFU per mL was calculated.

MRSP ST71 strain E104 = experiment: Growth curve analysis (BioScreen); format: cell-based, Staphylococcus pseudintermedius; settings: at the MIC, MRSP E104, OD600, 6 h, 37 °C
Experimental: First, we performed growth curve analysis using the well-characterized MRSP ST71 strain E104, which is resistant to a number of antibiotics. […] A well-characterized antimicrobial peptide, nisin, was used as control. […] Increased concentrations of nisin inhibited proportionally the growth of E104, both at sub-MIC and MIC concentrations.
The effect of D2 or analogues or nisin on the growth of MRSP strain E104 was evaluated using BioScreen (Oy Growth Curves Ab LTd, Helsinki, Finland). Freshly grown culture of E104 was diluted to OD 0.2 at 600 nm, supplemented with increased concentration of antimicrobials and distributed in a 100 well honeycomb micro-plate with volume 100 μL. The plate was incubated for 6 h at 37 °C with continuous shaking. The OD600 of each micro-culture was measured and recorded every 15 min after a 5 s pause of shaking in automatic mode. Recorded OD was plotted against time to prepare the growth curves. Experiment was performed twice and one representative result was presented.

red blood cell (RBC) = settings: 0.5% RBC suspension in PBS, 1 h, 37 °C, read at 414 nm, normalized to mellitin and PBS, triplicates
Experimental: Briefly, 75 µL of peptide in PBS was mixed with 75 µL of a 0.5% red blood cell (RBC) suspension in PBS, and incubated for 1 h at 37 °C. The hemoglobin release was then measured at 414 nm and normalized, using mellitin as positive control and PBS as negative control. Experiments were done in triplicates.

SMILES	MIC E. coli (E. coli, 30235) [µg/mL]	MIC SA [1] [µg/mL]	MIC S. pseudintermedius 22963 (S. pseudintermedius) [µg/mL]	MIC S. pseudintermedius 26071 (S. pseudintermedius) [µg/mL]	MIC S. pseudintermedius 26092-2 (S. pseudintermedius) [µg/mL]	MIC S. pseudintermedius 26959 (S. pseudintermedius) [µg/mL]	MIC S. pseudintermedius 27364 (S. pseudintermedius) [µg/mL]	MIC S. pseudintermedius 27382 (S. pseudintermedius) [µg/mL]	MIC S. pseudintermedius 31524 (S. pseudintermedius) [µg/mL]	MIC S. pseudintermedius 33228 (S. pseudintermedius) [µg/mL]	MIC S. pseudintermedius 35890 (S. pseudintermedius) [µg/mL]	MIC S. pseudintermedius 37526-1 (S. pseudintermedius) [µg/mL]	MIC S. pseudintermedius 37535-1 (S. pseudintermedius) [µg/mL]	MIC S. pseudintermedius 38637 (S. pseudintermedius) [µg/mL]	MIC S. pseudintermedius 38820 (S. pseudintermedius) [µg/mL]	MIC Corynebacterium auriscanis [2] [µg/mL]	MIC Enterococcus faecalis [3] [µg/mL]	MIC Klebsiella pneumoniae [4] [µg/mL]	MIC Acinetobacter baumannii [5] [µg/mL]	MIC Enterococcus faecium [6] [µg/mL]	other results
CCCC[C@@H](NC(=O)[C@@H](CCCCN)NC(=O)[C@@H](Cc1cccc2ccccc12)NC(=O)[C@@H](CCCCN)NC(=O)[C@@H](Cc1ccccc1)NC(=O)[C@@H](Cc1cccc2ccccc12)NC(=O)[C@@H](CCCCN)NC(=O)[C@H](N)CCCCN)C(N)=O [D2D] (H-[dK][dK][d1Nal][dF][dK][d1Nal][dK][dNle]-NH2)	4 (≈ 3.38 µM)	4 (≈ 3.38 µM)	2 (≈ 1.69 µM)	1 (≈ 0.844 µM)	1 (≈ 0.844 µM)	2 (≈ 1.69 µM)	2 (≈ 1.69 µM)	2 (≈ 1.69 µM)	2 (≈ 1.69 µM)	2 (≈ 1.69 µM)	2 (≈ 1.69 µM)	2 (≈ 1.69 µM)	2 (≈ 1.69 µM)	2 (≈ 1.69 µM)	2 (≈ 1.69 µM)	2 (≈ 1.69 µM)	8 (≈ 6.75 µM)	8 (≈ 6.75 µM)	16 (≈ 13.5 µM)	4 (≈ 3.38 µM)	MIC PA [7]: 4 µg/mL (≈ 3.38 µM); MIC Proteus mirabilis (Proteus mirabilis, 25178): >64 µg/mL; MIC S. aureus 25054 (S. aureus): 2 µg/mL (≈ 1.69 µM); MIC S. aureus 27266 (S. aureus): 2 µg/mL (≈ 1.69 µM); MIC S. aureus 28264 (S. aureus): 4 µg/mL (≈ 3.38 µM); MIC S. aureus 30935 (S. aureus): 2 µg/mL (≈ 1.69 µM); MIC S. aureus 36968 (S. aureus): 4 µg/mL (≈ 3.38 µM); MIC S. aureus 37595 (S. aureus): 2 µg/mL (≈ 1.69 µM); MIC S. aureus 37708-2 (S. aureus): 4 µg/mL (≈ 3.38 µM); MIC S. aureus 38200 (S. aureus): 2 µg/mL (≈ 1.69 µM); MIC S. aureus 38565-1 (S. aureus): 2 µg/mL (≈ 1.69 µM); MIC S. aureus 38841 (S. aureus): 4 µg/mL (≈ 3.38 µM); time to killing to bacterial levels below the detection threshold ([8]; 1× MIC, MRSP C22963): 30 min; growth curve, change of cell optical density over time (MRSP ST71 strain E104): cell lysis; HA, percentage of hemolysis at 150 µM (red blood cell (RBC)): 35%
CCCCN(CC(N)=O)C(=O)CN(CCCCN)C(=O)CN(Cc1cccc2ccccc12)C(=O)CN(CCCCN)C(=O)CN(Cc1ccc(C)cc1)C(=O)CN(Cc1cccc2ccccc12)C(=O)CN(CCCCN)C(=O)CNCCCCN [D2] (H-[Nlys][Nlys][N(1-naphthylmethyl)Gly][N(4-MeBn)Gly][Nlys][N(1-naphthylmethyl)Gly][Nlys][NBuGly]-NH2)	64 (≈ 53.4 µM)	8 (≈ 6.67 µM)	1 to 2	1 (≈ 0.834 µM)	1 (≈ 0.834 µM)	2 (≈ 1.67 µM)	1 (≈ 0.834 µM)	1 (≈ 0.834 µM)	1 (≈ 0.834 µM)	1 (≈ 0.834 µM)	1 (≈ 0.834 µM)	1 (≈ 0.834 µM)	1 (≈ 0.834 µM)	1 (≈ 0.834 µM)	1 (≈ 0.834 µM)	2 (≈ 1.67 µM)	>64	>64	>64	16 (≈ 13.3 µM)	MIC PA [7]: 16 µg/mL (≈ 13.3 µM); MIC Proteus mirabilis (Proteus mirabilis, 25178): >64 µg/mL; MIC S. aureus 25054 (S. aureus): 4 µg/mL (≈ 3.34 µM); MIC S. aureus 27266 (S. aureus): 8 µg/mL (≈ 6.67 µM); MIC S. aureus 28264 (S. aureus): 4 µg/mL (≈ 3.34 µM); MIC S. aureus 30935 (S. aureus): 4 µg/mL (≈ 3.34 µM); MIC S. aureus 36968 (S. aureus): 4 µg/mL (≈ 3.34 µM); MIC S. aureus 37595 (S. aureus): 4 µg/mL (≈ 3.34 µM); MIC S. aureus 37708-2 (S. aureus): 8 µg/mL (≈ 6.67 µM); MIC S. aureus 38200 (S. aureus): 4 µg/mL (≈ 3.34 µM); MIC S. aureus 38565-1 (S. aureus): 4 µg/mL (≈ 3.34 µM); MIC S. aureus 38841 (S. aureus): 8 µg/mL (≈ 6.67 µM); log reduction in time–kill ([8]; 1× MIC): 1.5 log; log reduction in time–kill ([8]; 2× MIC): 2.7 log; growth curve, change of cell optical density over time (MRSP ST71 strain E104): cell lysis; HA, percentage of hemolysis at 150 µM (red blood cell (RBC)): 24%

Reference: article PMC6470533, “Structure–Activity Study, Characterization, and Mechanism of Action of an Antimicrobial Peptoid D2 and Its D- and L-Peptide Analogues” (Molecules, 2019)
